Experimental data as given in PubChem BioAssay AID1259407 (Chemical Carcinogenesis Research Information System (CCRIS), 2018).
The source made the active and inactive calls. How the calls were made is not given here.

Test system: CCRIS mutagenicity, Ames/micronucleus/aberration tests
Test: CCRIS mutagenicity studies
[1] = Test System: AMES SALMONELLA TYPHIMURIUM, Strain/Indicator: TA98, Metabolic Activation: NONE, Method: STANDARD PLATE
[2] = Test System: AMES SALMONELLA TYPHIMURIUM, Strain/Indicator: TA100, Metabolic Activation: NONE, Method: STANDARD PLATE
[3] = Test System: AMES SALMONELLA TYPHIMURIUM, Strain/Indicator: TA97, Metabolic Activation: NONE, Method: PREINCUBATION
[4] = Test System: AMES SALMONELLA TYPHIMURIUM, Strain/Indicator: TA98, Metabolic Activation: NONE, Method: PREINCUBATION
[5] = Test System: AMES SALMONELLA TYPHIMURIUM, Strain/Indicator: TA100, Metabolic Activation: NONE, Method: PREINCUBATION

CC1(C)CC2=C(C=O)[C@@]3(C=O)C[C@@]3(C)[C@@H](O)[C@@H]2C1
mutagenic call [1]: active; positive | mutagenic call [2]: active; positive | mutagenic call (Test System: CHINESE HAMSTER V-79, Strain/Indicator: V-79/6-THIOGUANINE (HGPRT), Metabolic Activation: NONE): inactive; negative

CCCN(N)CCC
mutagenic call (Test System: AMES SALMONELLA TYPHIMURIUM, Strain/Indicator: TA100, Metabolic Activation: NONE, Method: PREINCUBATION (11 HR GROWTH PERIOD FOR BACTERIA)): active; positive | mutagenic call (Test System: AMES SALMONELLA TYPHIMURIUM, Strain/Indicator: TA100, Metabolic Activation: RAT, LIVER, S-9, PCB, Method: PREINCUBATION (11 HR GROWTH PERIOD FOR BACTERIA)): inactive; negative | mutagenic call (Test System: AMES SALMONELLA TYPHIMURIUM, Strain/Indicator: TA102, Metabolic Activation: NONE, Method: PREINCUBATION (5 OR 7 HR GROWTH PERIOD FOR BACTERIA)): active; positive | mutagenic call (Test System: AMES SALMONELLA TYPHIMURIUM, Strain/Indicator: TA102, Metabolic Activation: RAT, LIVER, S-9, PCB, Method: PREINCUBATION (5 OR 7 HR GROWTH PERIOD FOR BACTERIA)): inactive; negative

CC(=O)ON(C(C)=O)c1ccc(/C=C/c2ccccc2)cc1
mutagenic call (Test System: CHINESE HAMSTER V-79, Strain/Indicator: V-79/6-THIOGUANINE, Metabolic Activation: NONE, Method: STANDARD PLATE): active; positive

CC(=O)Nc1ccc(/C=C/c2ccccc2)cc1
mutagenic call (Test System: CHINESE HAMSTER OVARY, Strain/Indicator: AS52/6-THIOGUANINE, Metabolic Activation: NONE): inactive; negative | mutagenic call (Test System: CHINESE HAMSTER OVARY, Strain/Indicator: AS52/6-THIOGUANINE, Metabolic Activation: RAT LIVER S-9, 2-ACETYLAMINOFLUORENE): active; positive

CCCOS(=O)(=O)c1ccccc1
mutagenic call (End Point: IN VITRO MICRONUCLEUS, Test System: MOUSE LYMPHOMA L5178Y CELLS, Metabolic Activation: NONE): inactive; negative; positive only at highly/excessively cytotoxic doses | mutagenic call (End Point: IN VITRO MICRONUCLEUS, Test System: MOUSE LYMPHOMA L5178Y CELLS, Metabolic Activation: RAT, LIVER, S-9): inactive; negative; authors report results as weakly positive | mutagenic call [2]: active; positive | mutagenic call (Test System: AMES SALMONELLA TYPHIMURIUM, Strain/Indicator: TA100, Metabolic Activation: RAT, LIVER, S-9, Method: STANDARD PLATE): active; positive

O[C@@H]1[C@H]2O[C@H]2c2c(ccc3c4ccccc4c4ccccc4c23)[C@H]1O
mutagenic call [3]: active; positive | mutagenic call [4]: active; positive | mutagenic call [5]: active; positive | mutagenic call (Test System: AMES SALMONELLA TYPHIMURIUM, Strain/Indicator: TA104, Metabolic Activation: NONE, Method: PREINCUBATION): active; positive | mutagenic call (Test System: CHINESE HAMSTER V-79, Strain/Indicator: V-79/6-THIOGUANINE, Metabolic Activation: NONE): active; positive

O=S(=O)(O)c1cc(S(=O)(=O)O)c2c(N=Nc3ccccc3)c(O)ccc2c1
mutagenic call (End Point: IN VITRO CHROMOSOMAL ABERRATIONS, Test System: CHO CELLS, Metabolic Activation: NONE): inactive; negative | mutagenic call (End Point: IN VITRO CHROMOSOMAL ABERRATIONS, Test System: CHO CELLS, Metabolic Activation: RAT, LIVER, S-9, AROCLOR 1254): active; positive | mutagenic call (Test System: AMES SALMONELLA TYPHIMURIUM, Strain/Indicator: TA97, Metabolic Activation: HAMSTER, LIVER, S-9, AROCLOR 1254 (10 OR 30%), Method: PREINCUBATION): inactive; negative | mutagenic call [3]: inactive; negative | mutagenic call (Test System: AMES SALMONELLA TYPHIMURIUM, Strain/Indicator: TA97, Metabolic Activation: RAT, LIVER, S-9, AROCLOR 1254 (10 OR 30%), Method: PREINCUBATION): inactive; negative | mutagenic call (Test System: AMES SALMONELLA TYPHIMURIUM, Strain/Indicator: TA98, Metabolic Activation: HAMSTER, LIVER, S-9, AROCLOR 1254 (10 OR 30%), Method: PREINCUBATION): inactive; negative | mutagenic call [4]: inactive; negative | mutagenic call (Test System: AMES SALMONELLA TYPHIMURIUM, Strain/Indicator: TA98, Metabolic Activation: RAT, LIVER, S-9, AROCLOR 1254 (10 OR 30%), Method: PREINCUBATION): inactive; negative | mutagenic call (Test System: AMES SALMONELLA TYPHIMURIUM, Strain/Indicator: TA100, Metabolic Activation: HAMSTER, LIVER, S-9, AROCLOR 1254 (10 OR 30%), Method: PREINCUBATION): inactive; negative | mutagenic call [5]: inactive; negative | mutagenic call (Test System: AMES SALMONELLA TYPHIMURIUM, Strain/Indicator: TA100, Metabolic Activation: RAT, LIVER, S-9, AROCLOR 1254 (10 OR 30%), Method: PREINCUBATION): inactive; negative | mutagenic call (Test System: AMES SALMONELLA TYPHIMURIUM, Strain/Indicator: TA1535, Metabolic Activation: HAMSTER, LIVER, S-9, AROCLOR 1254 (10 OR 30%), Method: PREINCUBATION): inactive; negative | mutagenic call (Test System: AMES SALMONELLA TYPHIMURIUM, Strain/Indicator: TA1535, Metabolic Activation: NONE, Method: PREINCUBATION): inactive; negative | mutagenic call (Test System: AMES SALMONELLA TYPHIMURIUM, Strain/Indicator: TA1535, Metabolic Activation: RAT, LIVER, S-9, AROCLOR 1254 (10 OR 30%), Method: PREINCUBATION): inactive; negative | mutagenic call (Test System: MOUSE LYMPHOMA, Strain/Indicator: L5178Y (TK+/TK-), Metabolic Activation: NONE, Method: SUSPENSION/PLATE): inactive; negative. reevaluation of results: negative | mutagenic call (Test System: MOUSE LYMPHOMA, Strain/Indicator: L5178Y (TK+/TK-), Metabolic Activation: RAT, LIVER, S-9, AROCLOR 1254, Method: SUSPENSION/PLATE): active; positive. reevaluation of results: equivocal

CCCCN(CO)N=O
mutagenic call (Test System: CHINESE HAMSTER V-79, Strain/Indicator: V-79/OUABAIN, Metabolic Activation: NONE): active; positive

CCCCNc1snc2ccccc12
mutagenic call [1]: inactive; negative | mutagenic call (Test System: AMES SALMONELLA TYPHIMURIUM, Strain/Indicator: TA98, Metabolic Activation: S-9, Method: STANDARD PLATE): inactive; negative | mutagenic call [2]: inactive; negative | mutagenic call (Test System: AMES SALMONELLA TYPHIMURIUM, Strain/Indicator: TA100, Metabolic Activation: S-9, Method: STANDARD PLATE): inactive; negative | mutagenic call (Test System: AMES SALMONELLA TYPHIMURIUM, Strain/Indicator: TA1535, Metabolic Activation: NONE, Method: STANDARD PLATE): inactive; negative | mutagenic call (Test System: AMES SALMONELLA TYPHIMURIUM, Strain/Indicator: TA1535, Metabolic Activation: S-9, Method: STANDARD PLATE): inactive; negative | mutagenic call (Test System: AMES SALMONELLA TYPHIMURIUM, Strain/Indicator: TA1537, Metabolic Activation: NONE, Method: STANDARD PLATE): inactive; negative | mutagenic call (Test System: AMES SALMONELLA TYPHIMURIUM, Strain/Indicator: TA1537, Metabolic Activation: S-9, Method: STANDARD PLATE): inactive; negative
